In the test the test system is vesperlysine-like and pentosidine-like AGEs from albumin glycation. As to the kind of experiment: Inhibition of AGE formation from albumin glycation (BSA + D-ribose, fluorescence). In kind it is biochemical, bovine. The protocol: Following solutions were prepared for the assay: Reagent A: Phosphate buffer pH 7.0: 0.03 M KH2PO4 and 0.03 M K2HPO4 in ultrapure water (Millipore® Synergy® UV); Reagent B: 1.3 mg/mL aminoguanidine hydrochloride in phosphate buffer; Reagent C: 32 mg/mL Rosamox-Z in phosphate buffer; Reagent D: 30 mg/mL Zemea® Propanediol in phosphate buffer; Reagent E: 30 mg/mL BSA in phosphate buffer; Reagent F: 1.5 M D-ribose in phosphate buffer.
All the diluted samples (Sample B1-B5) were used for the AGE reaction.
Samples C1-C5 were diluted from the sample stock (reagent C) solution. Samples C6-C9 were diluted from Sample C5. All the diluted samples (Sample C1-C9) were used for the AGE reaction. Test samples D were diluted the same way as test samples C.
(Following Sero, L. et al. (2013) Tuning a 96-Well Microtiter Plate Fluorescence-Based Assay to Identify AGE Inhibitors in Crude Plant Extracts. Molecules. 18, 14320-14339.) A 96-well plate was prepared as follows (each sample was prepared in triplicate): Blank wells—50 μL BSA stock (reagent E) solution and 100 μL phosphate buffer (reagent A); Negative control wells—50 μL BSA stock (reagent E) and 50 μL diluent (Reagent A) to three empty wells; Positive control wells—50 μL BSA stock (reagent E) and 50 μL Aminoguanidine hydrochloride samples (Sample B1-B5); All treatments—50 μL BSA stock (reagent E) and 50 μL treatments (Sample C1-C9 and D1-D9); 50 μL D-ribose solutions (Reagent F) were added to every well except the blank wells.
The plates were read for fluorescence at λexc 370 nm λem 440 nm for versperlysines-like AGEs and λexc 335 nm λem 385 nm for pentosidine like AGEs. The plate was wrapped with aluminum foil to avoid light exposure and incubated at 37° C. and read again after 24 hours.
% inhibition was calculated as ((control 24 hours−control 0 hours)−(treatment 24 hours−treatment 0 hours))/(control 24 hours−control 0 hours).
FIG. 10 is a chart of the inhibition effect of Rosamox-Z on the formation of vesperlysine-like and pentosidine-like AGEs from albumin glycation. […]

The values that follow come from US20150164967A1, “Personal Care Products Containing Extracts of Rosemary” (Kemin Industries, Inc., priority 2013, published 2015).

Turning to `[2H]C([2H])(O)C([2H])([2H])C([2H])([2H])O` [Zemea® Propanediol, Propanediol], where the note is “0-15 mg/mL, λexc 335 nm λem 385 nm, 24 h at 37° C.”, the “inhibition effect for pentosidine-like AGEs” value is on record as “around 10%”. In addition, the “promoting effect for vesperlysines-like AGEs” value (0-15 mg/mL, λexc 370 nm λem 440 nm, 24 h at 37° C.) was “around 5%”.

Turning to `CC(C)c1cc2c(c(O)c1O)[C@@]1(C(=O)O)CCCC(C)(C)[C@@H]1CC2` [carnosic acid], the “predicted 1050 for these reactions” value (worked out from the Rosamox-Z value and 4% carnosic acid content) was 0.4 to 0.6 mg/mL.
